According to patent US11123337B2, “4-methylsulfonyl-substituted piperidine urea compounds” (MYOKARDIA, INC., priority 2015, dated 2021):

What follows are compounds tested against bovine cardiac myosin (Bos taurus, UniProt Q9BE39) (assay: Myosin activation assay (PK/LDH-coupled ATPase, bovine cardiac myofibrils)). Conditions: AC20 = concentration at which total response is increased by twenty percent.
Assay type: biochemical
Outline: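 Values are the concentrations raising the ATPase rate by 20% or 50% over DMSO, from 10-point dose responses fitted with four parameters. Rate is NADH loss at 340 nm via PK/LDH coupling, read 15 min at room temperature, in pH 6.8 PIPES with 50 μM ATP. Bovine cardiac myofibrils were held at pCa ~6 or pCa 10.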

Chain of bovine cardiac myosin (Q9BE39 whole entry): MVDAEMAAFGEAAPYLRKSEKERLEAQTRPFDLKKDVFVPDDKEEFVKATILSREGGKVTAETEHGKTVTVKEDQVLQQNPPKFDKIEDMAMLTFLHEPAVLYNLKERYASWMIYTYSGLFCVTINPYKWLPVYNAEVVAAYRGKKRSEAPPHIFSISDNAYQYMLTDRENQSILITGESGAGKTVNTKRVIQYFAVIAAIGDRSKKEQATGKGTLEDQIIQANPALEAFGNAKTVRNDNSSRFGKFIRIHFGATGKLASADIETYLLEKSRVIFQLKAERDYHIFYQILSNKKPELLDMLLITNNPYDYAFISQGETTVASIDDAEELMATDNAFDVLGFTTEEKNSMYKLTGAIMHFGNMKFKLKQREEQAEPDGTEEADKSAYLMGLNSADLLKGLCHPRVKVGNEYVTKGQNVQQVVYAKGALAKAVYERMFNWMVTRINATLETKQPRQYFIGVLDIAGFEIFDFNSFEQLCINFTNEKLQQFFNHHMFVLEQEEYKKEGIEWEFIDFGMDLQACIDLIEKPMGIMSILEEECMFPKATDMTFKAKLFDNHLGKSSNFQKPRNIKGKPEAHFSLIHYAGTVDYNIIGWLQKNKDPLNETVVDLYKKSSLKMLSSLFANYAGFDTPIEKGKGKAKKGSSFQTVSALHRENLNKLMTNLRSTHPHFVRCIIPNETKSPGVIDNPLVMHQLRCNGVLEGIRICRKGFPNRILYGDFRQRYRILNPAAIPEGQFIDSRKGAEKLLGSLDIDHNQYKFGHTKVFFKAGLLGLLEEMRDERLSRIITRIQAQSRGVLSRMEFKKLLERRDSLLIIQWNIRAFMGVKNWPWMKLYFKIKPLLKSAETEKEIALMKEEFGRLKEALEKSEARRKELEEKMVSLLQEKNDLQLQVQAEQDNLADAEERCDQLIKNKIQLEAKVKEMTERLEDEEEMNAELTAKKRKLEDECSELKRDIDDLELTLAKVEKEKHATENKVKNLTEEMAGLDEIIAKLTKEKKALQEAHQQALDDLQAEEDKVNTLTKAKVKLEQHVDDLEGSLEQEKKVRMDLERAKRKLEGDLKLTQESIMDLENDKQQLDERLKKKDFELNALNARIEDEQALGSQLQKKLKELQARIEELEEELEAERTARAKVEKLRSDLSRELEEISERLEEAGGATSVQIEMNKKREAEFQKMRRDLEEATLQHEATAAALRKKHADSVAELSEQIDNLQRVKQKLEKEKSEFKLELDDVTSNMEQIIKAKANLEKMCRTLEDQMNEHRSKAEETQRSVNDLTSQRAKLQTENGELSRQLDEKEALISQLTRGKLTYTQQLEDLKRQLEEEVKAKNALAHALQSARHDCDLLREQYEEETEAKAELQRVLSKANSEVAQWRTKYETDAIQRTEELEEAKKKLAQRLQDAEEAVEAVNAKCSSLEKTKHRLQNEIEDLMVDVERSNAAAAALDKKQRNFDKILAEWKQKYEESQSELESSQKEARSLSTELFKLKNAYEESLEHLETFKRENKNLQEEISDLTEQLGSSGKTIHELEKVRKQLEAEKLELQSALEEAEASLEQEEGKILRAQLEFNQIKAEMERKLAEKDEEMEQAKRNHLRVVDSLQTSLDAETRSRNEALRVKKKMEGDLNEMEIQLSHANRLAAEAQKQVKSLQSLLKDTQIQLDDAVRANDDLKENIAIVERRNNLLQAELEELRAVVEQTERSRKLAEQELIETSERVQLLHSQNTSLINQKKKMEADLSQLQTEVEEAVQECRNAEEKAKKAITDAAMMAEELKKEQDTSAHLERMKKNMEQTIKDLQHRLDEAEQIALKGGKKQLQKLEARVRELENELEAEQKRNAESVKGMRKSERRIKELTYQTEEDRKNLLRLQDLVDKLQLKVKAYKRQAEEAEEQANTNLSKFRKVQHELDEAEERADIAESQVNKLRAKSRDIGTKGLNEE
Chain of bovine cardiac myosin (P85100 whole entry partner): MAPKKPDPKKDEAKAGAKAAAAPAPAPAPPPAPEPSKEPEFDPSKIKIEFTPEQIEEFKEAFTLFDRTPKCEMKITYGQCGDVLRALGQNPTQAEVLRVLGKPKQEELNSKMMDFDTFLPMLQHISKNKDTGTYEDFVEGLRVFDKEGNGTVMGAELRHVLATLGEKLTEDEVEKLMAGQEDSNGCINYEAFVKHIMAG
Chain of bovine cardiac myosin (Q3SZE5 whole entry partner): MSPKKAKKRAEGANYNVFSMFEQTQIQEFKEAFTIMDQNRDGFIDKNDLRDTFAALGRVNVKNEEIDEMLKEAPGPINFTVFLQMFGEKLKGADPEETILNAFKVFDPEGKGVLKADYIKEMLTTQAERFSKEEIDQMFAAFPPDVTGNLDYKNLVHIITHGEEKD

| SMILES | Myosin Activation (AC20) |
| --- | --- |
| O=C(Nc1ccnnc1)N1CCC(F)(C2(S(=O)(=O)c3cccc(F)c3)CCC2)CC1 [Compound 166, 4-fluoro-4-(1-((3-fluorophenyl)sulfonyl)cyclobutyl)-N-(pyridazin-4-yl)piperidine-1-carboxamide] | ++ (++ represents myosin activation value AC20 from 2 μM-5 μM) |
| O=C(Nc1ccnnc1)N1CCC(C2(S(=O)(=O)c3cc(F)cc(F)c3)CCC2)CC1 [Compound 167, 4-(1-((3,5-difluorophenyl)sulfonyl)cyclobutyl)-N-(pyridazin-4-yl)piperidine-1-carboxamide] | +++ (+++ represents myosin activation value AC20 < 2 μM) |
| Cn1cc(S(=O)(=O)C(C)(C)C2CCN(C(=O)Nc3ccnnc3)CC2)c(C(F)F)n1 [Compound 168, 4-(2-((3-(difluoromethyl)-1-methyl-1H-pyrazol-4-yl)sulfonyl)propan-2-yl)-N-(pyridazin-4-yl)piperidine-1-carboxamide] | +++ (+++ represents myosin activation value AC20 < 2 μM) |
| CC(C)(C1CCN(C(=O)Nc2ccnnc2)CC1)S(=O)(=O)c1cc(F)cc(F)c1 [Compound 169, 4-(2-((3,5-difluorophenyl)sulfonyl)propan-2-yl)-N-(pyridazin-4-yl)piperidine-1-carboxamide] | +++ (+++ represents myosin activation value AC20 < 2 μM) |
| Cn1cc(S(=O)(=O)C2(C3CCN(C(=O)Nc4ccnnc4)CC3)CCC2)c(C(F)F)n1 [Compound 170, 4-(1-((3-(difluoromethyl)-1-methyl-1H-pyrazol-4-yl)sulfonyl)cyclobutyl)-N-(pyridazin-4-yl)piperidine-1-carboxamide] | +++ (+++ represents myosin activation value AC20 < 2 μM) |
| CC(C)(C1CCN(C(=O)Nc2ccnnc2)CC1)S(=O)(=O)c1ccc(C(F)(F)F)nc1 [Compound 171, N-(pyridazin-4-yl)-4-(2-((6-(trifluoromethyl)pyridin-3-yl)sulfonyl)propan-2-yl)piperidine-1-carboxamide] | ++ (++ represents myosin activation value AC20 from 2 μM-5 μM) |
| Cn1cnc(S(=O)(=O)C(C)(C)C2CCN(C(=O)Nc3ccnnc3)CC2)c1 [Compound 172, 4-(2-((1-methyl-1H-imidazol-4-yl)sulfonyl)propan-2-yl)-N-(pyridazin-4-yl)piperidine-1-carboxamide] | + (+ represents myosin activation value AC20 > 5 μM) |
| Cn1cnc(S(=O)(=O)C2(C3CCN(C(=O)Nc4ccnnc4)CC3)CCC2)c1 [Compound 173, 4-(1-((1-methyl-1H-imidazol-4-yl)sulfonyl)cyclobutyl)-N-(pyridazin-4-yl)piperidine-1-carboxamide] | + (+ represents myosin activation value AC20 > 5 μM) |
| Cn1nccc1S(=O)(=O)C1(C2CCN(C(=O)Nc3ccnnc3)CC2)CCC1 [Compound 174, 4-(1-((1-methyl-1H-pyrazol-5-yl)sulfonyl)cyclobutyl)-N-(pyridazin-4-yl)piperidine-1-carboxamide] | +++ (+++ represents myosin activation value AC20 < 2 μM) |
| Cn1nccc1S(=O)(=O)C1(C2CCN(C(=O)Nc3cnns3)CC2)CCC1 [Compound 175, 4-(1-((1-methyl-1H-pyrazol-5-yl)sulfonyl)cyclobutyl)-N-(1,2,3-thiadiazol-5-yl)piperidine-1-carboxamide] | +++ (+++ represents myosin activation value AC20 < 2 μM) |
| CC(C)(C1CCN(C(=O)Nc2ccncc2Cl)CC1)S(=O)(=O)c1cccc(F)c1 [Compound 176, N-(3-chloropyridin-4-yl)-4-(2-((3-fluorophenyl)sulfonyl)propan-2-yl)piperidine-1-carboxamide] | + (+ represents myosin activation value AC20 > 5 μM) |
| CC(C)(C1CCN(C(=O)Nc2ccncc2F)CC1)S(=O)(=O)c1cccc(F)c1 [Compound 177, 4-(2-((3-fluorophenyl)sulfonyl)propan-2-yl)-N-(3-fluoropyridin-4-yl)piperidine-1-carboxamide] | + (+ represents myosin activation value AC20 > 5 μM) |
| CC(F)(F)C(C)(C1CCN(C(=O)Nc2ccnnc2)CC1)S(=O)(=O)c1cccc(F)c1 (centres unmarked) [Compound 178, 4-(3,3-difluoro-2-((3-fluorophenyl)sulfonyl)butan-2-yl)-N-(pyridazin-4-yl)piperidine-1-carboxamide] | +++ (+++ represents myosin activation value AC20 < 2 μM) |
| CC(C)(C1CCN(C(=O)Nc2cnns2)CC1)S(=O)(=O)c1ccc(C#N)cc1 [Compound 179, 4-(2-((4-cyanophenyl)sulfonyl)propan-2-yl)-N-(1,2,3-thiadiazol-5-yl)piperidine-1-carboxamide] | +++ (+++ represents myosin activation value AC20 < 2 μM) |
| CC(C)(C1CCN(C(=O)Nc2ccnnc2)CC1)S(=O)(=O)c1ccc(C#N)cc1 [Compound 180, 4-(2-((4-cyanophenyl)sulfonyl)propan-2-yl)-N-(pyridazin-4-yl)piperidine-1-carboxamide] | ++ (++ represents myosin activation value AC20 from 2 μM-5 μM) |
| CC(C)(C1CCN(C(=O)Nc2ccnnc2)CC1)S(=O)(=O)c1ccc(C(F)(F)F)cc1 [Compound 181, N-(pyridazin-4-yl)-4-(2-((4-(trifluoromethyl)phenyl)sulfonyl)propan-2-yl)piperidine-1-carboxamide] | ++ (++ represents myosin activation value AC20 from 2 μM-5 μM) |
| CC(C)(C1CCN(C(=O)Nc2cnns2)CC1)S(=O)(=O)c1ccc(C(F)(F)F)cc1 [Compound 182, N-(1,2,3-thiadiazol-5-yl)-4-(2-((4-(trifluoromethyl)phenyl)sulfonyl)propan-2-yl)piperidine-1-carboxamide] | +++ (+++ represents myosin activation value AC20 < 2 μM) |
| CCn1nccc1S(=O)(=O)C(C)(C)C1CCN(C(=O)Nc2cnns2)CC1 [Compound 183, 4-(2-((1-ethyl-1H-pyrazol-5-yl)sulfonyl)propan-2-yl)-N-(1,2,3-thiadiazol-5-yl)piperidine-1-carboxamide] | ++ (++ represents myosin activation value AC20 from 2 μM-5 μM) |
| CCn1nccc1S(=O)(=O)C(C)(C)C1CCN(C(=O)Nc2ccncc2)CC1 [Compound 184, 4-(2-((1-ethyl-1H-pyrazol-5-yl)sulfonyl)propan-2-yl)-N-(pyridin-4-yl)piperidine-1-carboxamide] | ++ (++ represents myosin activation value AC20 from 2 μM-5 μM) |
| CCn1nccc1S(=O)(=O)C(C)(C)C1CCN(C(=O)Nc2ccnnc2)CC1 [Compound 185, 4-(2-((1-ethyl-1H-pyrazol-5-yl)sulfonyl)propan-2-yl)-N-(pyridazin-4-yl)piperidine-1-carboxamide] | + (+ represents myosin activation value AC20 > 5 μM) |
| Cc1cc(S(=O)(=O)C(C)(C)C2CCN(C(=O)Nc3ccncc3)CC2)n(C)n1 [Compound 186, 4-(2-((1,3-dimethyl-1H-pyrazol-5-yl)sulfonyl)propan-2-yl)-N-(pyridin-4-yl)piperidine-1-carboxamide] | +++ (+++ represents myosin activation value AC20 < 2 μM) |
| Cc1cc(S(=O)(=O)C(C)(C)C2CCN(C(=O)Nc3ccnnc3)CC2)n(C)n1 [Compound 187, 4-(2-((1,3-dimethyl-1H-pyrazol-5-yl)sulfonyl)propan-2-yl)-N-(pyridazin-4-yl)piperidine-1-carboxamide] | +++ (+++ represents myosin activation value AC20 < 2 μM) |
| Cc1cc(S(=O)(=O)C(C)(C)C2CCN(C(=O)Nc3cnns3)CC2)n(C)n1 [Compound 188, 4-(2-((1,3-dimethyl-1H-pyrazol-5-yl)sulfonyl)propan-2-yl)-N-(1,2,3-thiadiazol-5-yl)piperidine-1-carboxamide] | +++ (+++ represents myosin activation value AC20 < 2 μM) |
| CC(C)(C1CCN(C(=O)Nc2ccnnc2)CC1)S(=O)(=O)c1ccc2ccnn2c1 [Compound 189, 4-(2-(pyrazolo[1,5-a]pyridin-6-ylsulfonyl)propan-2-yl)-N-(pyridazin-4-yl)piperidine-1-carboxamide] | +++ (+++ represents myosin activation value AC20 < 2 μM) |
| COc1ncccc1S(=O)(=O)C(C)(C)C1CCN(C(=O)Nc2ccnnc2)CC1 [Compound 190, 4-(2-((2-methoxypyridin-3-yl)sulfonyl)propan-2-yl)-N-(pyridazin-4-yl)piperidine-1-carboxamide] | ++ (++ represents myosin activation value AC20 from 2 μM-5 μM) |
| CC(C)(C1CCN(C(=O)Nc2ccnnc2)CC1)S(=O)(=O)c1ccn2nccc2c1 [Compound 191, 4-(2-(pyrazolo[1,5-a]pyridin-5-ylsulfonyl)propan-2-yl)-N-(pyridazin-4-yl)piperidine-1-carboxamide] | +++ (+++ represents myosin activation value AC20 < 2 μM) |
| Cn1nccc1S(=O)(=O)C(C)(C)C1CCN(C(=O)Nc2ccnnc2)CC1 [Compound 192, 4-(2-((1-methyl-1H-pyrazol-5-yl)sulfonyl)propan-2-yl)-N-(pyridazin-4-yl)piperidine-1-carboxamide] | +++ (+++ represents myosin activation value AC20 < 2 μM) |
| Cn1nccc1S(=O)(=O)C(C)(C)C1CCN(C(=O)Nc2cnns2)CC1 [Compound 193, 4-(2-((1-methyl-1H-pyrazol-5-yl)sulfonyl)propan-2-yl)-N-(1,2,3-thiadiazol-5-yl)piperidine-1-carboxamide] | +++ (+++ represents myosin activation value AC20 < 2 μM) |
| Cn1nccc1S(=O)(=O)C(C)(C)C1CCN(C(=O)Nc2ccncc2)CC1 [Compound 194, 4-(2-((1-methyl-1H-pyrazol-5-yl)sulfonyl)propan-2-yl)-N-(pyridin-4-yl)piperidine-1-carboxamide] | ++ (++ represents myosin activation value AC20 from 2 μM-5 μM) |
